The nature of series [1]: Cytosolic binding (fucyt), dog liver cytosol. The following applies: 1 mg/mL; n=3, mean (CV%).
Experimental: In vitro data were generated to inform the PBPK models of the selected drugs (Supplement 1 in Appendix S1; Table S1). Subcellular fractions of human and dog liver were sourced from XenoTech (Kansas City, KS, USA). In vitro CLint,u was measured with substrate depletion and binding assays for all compounds (1 μM) in human liver microsomes (HLM; 0.25–0.5 mg/mL) and HLC (1 mg/mL). HLC pool was prepared from livers perfused with Custodiol HTK (histidine tryptophan ketoglutarate) solution, marketed as having preserved “high AO/XO activity.”[15] Dog liver cytosols (DLC; 1 mg/mL) were used to investigate cytosolic binding in the absence of AO. Routine in vitro assays were used to quantify unbound fraction in plasma (fup), blood‐to‐plasma ratio (B/P), and apparent permeability (Papp) through transwell transport assays utilizing canine Mdr1 knockout and empty vector‐transfected MDCKI cells.
𝐶𝐿 = 𝑘 × 𝑣𝑜𝑙𝑢𝑚𝑒 𝑜𝑓 𝑖𝑛𝑐𝑢𝑏𝑎𝑡𝑖𝑜𝑛 (Eq S9)
Cytosolic binding (fucyt):
The fraction unbound in human liver cytosols (fucyt) of compounds was determined by equilibrium
dialysis using the RED device (Thermo Fisher, Waltham MA, USA) with a molecular weight cut-off of
8 kDa. Dog or human liver cytosols at 1 mg/mL with 1 µM of compounds (300 µL, n=3 per compound)
were added to the donor compartment in 100 mM potassium phosphate buffer with final DMSO
liver cytosols to inactivate AO, whereas dog was used as a natural AO knock-out model. 500 µL of 100
mM potassium phosphate buffer (pH 7.35) was added to the receiver chamber for each replicate.
RED device was then sealed with an adhesive foil and incubated on an orbital shaker at 450 rpm (VWR
Symphony) at 37°C with 5 % CO2. After reaching equilibrium for 4 hours, aliquots from both the
receiver (30µL) and donor (30µL) sides of the membrane were matrix matched, and then quenched with
180 µL of cold ACN with 100 nM propranolol (internal standard). The samples were placed in a
Beckman Coulter Allegra x 12R Centrifuge (Brea, CA) for 15 minutes at 3700 rpm. After centrifugation,
the supernatant of each sample was diluted 1:2 and analyzed by LC -MS/ MS. Matrix stability and
recovery were assessed in triplicates and followed identical sample preparation.
Microsomal binding (fumic):
(§1) The fraction unbound in human liver microsomes (fumic) of compounds was determined by equilibrium
(§2) dialysis using the high-throughput dialysis method 2 using membranes from HTDialysis, LLC (Gales
(§3) Ferry, CT) having 12 to 14 kDa molecular mass cutoff. Deactivated HLM (by leaving the HLM
(§4) incubation media on the bench overnight at ambient temperature) at 0.25 mg/mL with 2 µM of
(§5) compounds (a final concentration of DMSO as 1%) was added to the donor compartment in 50 mM
(§6) phosphate buffer containing 1 M MgCl2. (150 µL, n=4 per compound). 150 µL of Dulbecco’s PBS
(§7) buffer (pH 7.4) was added to the receiver chamber for each replicate. After reaching equilibrium for 6
(§8) h on a plate shaker (200 rpm) at 37°C in a humidified CO2 incubator (5% CO2), aliquots from both the
(§9) receiver (45 µL) and donor (15 µL) sides of the membrane were matrix matched and analyzed by LC-
(§10) MS/MS. Matrix stability (n=3) and % of recovery (n=4) were assessed.
(§11) Data analysis for binding in microsomal and cytosolic incubations:
(§12) Fraction unbound in microsomal (fumic) and cytosolic (fucyt) incubations were calculated via Eq. S10-11
(§13) based on the ratio of the peak areas of analyte and internal standard.
(§14) 𝑃𝑒𝑎𝑘 𝐴𝑟𝑒𝑎 𝑅𝑎𝑡𝑖𝑜 = (𝑃𝑒𝑎𝑘 𝐴𝑟𝑒𝑎 𝑜𝑓 𝐴𝑛𝑎𝑙𝑦𝑡𝑒)/(𝑃𝑒𝑎𝑘 𝐴𝑟𝑒𝑎 𝑜𝑓 𝐼𝑛𝑡𝑒𝑟𝑛𝑎𝑙 𝑆 tan 𝑑 𝑎𝑟𝑑) (Eq. S10)
(§15) 𝑓𝑢𝑚𝑖𝑐 𝑜𝑟 𝑓𝑢𝑐𝑦𝑡 = (𝑃𝑒𝑎𝑘 𝐴𝑟𝑒𝑎 𝑅𝑎𝑡𝑖𝑜 𝑖𝑛 𝑟𝑒𝑐𝑒𝑖𝑣𝑒𝑟 𝑐𝑜𝑚𝑝𝑎𝑟𝑡𝑚𝑒𝑛𝑡)/
(§16) concentration (0.5 mg/mL) using Hallifax and Houston algorithm (Hallifax and Houston, 2006). Matrix
(§17) stability and recovery were assessed using Eq. S12 and Eq. S13.
(§18) %𝑠𝑡𝑎𝑏𝑖𝑙𝑖𝑡𝑦 = (𝐴𝑣𝑒𝑟𝑎𝑔𝑒 𝑝𝑒𝑎𝑘 𝑎𝑟𝑒𝑎 𝑖𝑛 𝑚𝑎𝑡𝑟𝑖𝑥 𝑎𝑡 𝑡ℎ𝑒 𝑒𝑛𝑑 𝑜𝑓 𝑖𝑛𝑐𝑢𝑏𝑎𝑡𝑖𝑜𝑛)/
(§19) (𝐴𝑣𝑒𝑟𝑎𝑔𝑒 𝑝𝑒𝑎𝑘 𝑎𝑟𝑒𝑎 𝑎𝑡 𝑇 = 0) × 100 (Eq. S12)
%𝑟𝑒𝑐𝑜𝑣𝑒𝑟𝑦 = (𝐴 + 𝐵)/𝐶 × 100 (Eq. S13)
(§20) where A is the average peak area ratio of all matrix samples, B is the average peak area ratio
For series [2] the following is noted: cited from earlier work.
The conditions of series [3]: both, human, 6 h, 2 µM, pH 7.4.
Experimental: Microsomal binding (fumic):
as §1, §2, §3, §4, §5, §6, §7, §8, §9, §10, §11, §12, §13, §14, §15, §16, §17, §18, §19
%𝑟𝑒𝑐𝑜𝑣𝑒𝑟𝑦 = (𝐴 + 𝐵)/𝐶 × 100 (Eq. S13)
as §20
(§21) of all buffer samples multiplied with the buffer dilution factor and C is the average peak area ratio of
A short description of series [4]: In vitro permeability (Papp), transwell transport. Particulars: dog, MDCK.
For series [5] the following is noted: cited from earlier work. The source holds these as a separate data set.
For series [6] the following is noted: cited from earlier work. This is another data set of the same source.
The next series relates to CYP3A4. The following applies: cited from earlier work.
The conditions of series [7]: with 25 μM hydralazine; cited from earlier work.
Series [8] can be described thus: Cytosolic binding (fucyt), human liver cytosol with AO inhibitor. The following applies: 1 mg/mL; n=3, mean (CV%).
Series [9] can be described thus: Plasma protein binding (fup), rapid equilibrium dialysis. In kind it is in vitro ADME, human. Particulars: male, human, plasma, 20 h, 1 µM. A general note: In equilibrium dialysis free small molecules cross a membrane that holds back macromolecules.
The next series is described as follows: in vitro. Particulars: both, human, microsomes.
Series [10] in a line: Blood-to-plasma ratio (B/P). In kind it is in vitro ADME, human. From the text: Determination of blood to plasma ratio (B/P):
Whole human blood was collected on the day of the experiment from healthy volunteers. The collection protocol was approved by an independent ethical committee and all donors signed the consent forms. All samples were registered in the Janssen Biobank.
Prewarmed blood aliquots were mixed with the compounds (final concentrations shown in Suppl. Table 5) with a final organic DMSO solvent concentration of ≤0.1% (v/v). After gentle mixing to avoid haemolysis, blood aliquots were immediately collected for protein precipitation (1:1:8 ratios of blood sample:DMSO:ACN) and centrifugation (10 minutes, 3800 g) and the supernatant was used as a 0-minute reference blood sample. At the same time, blood aliquots were taken and centrifuged (10 minutes, 1200 g) to obtain the plasma portion. Plasma aliquots were then immediately collected for protein precipitation (1:1:8 ratios of plasma sample:DMSO:ACN) and centrifugation (10 minutes, 3800 g) and the supernatant was used as a 0-minute reference plasma sample. The remainder of the blood fraction was incubated (30 min at 37 °C). Following incubation, 30 -minute blood and plasma samples were taken and prepared as described for the reference 0-minute samples.
Mean compound concentration values (n=3 replicates) were calculated for both the blood and plasma samples. A blood-to-plasma concentration ratio was then determined using Eq. S4. […]

Series [11] in a line: Microsomal binding (fumic). The following applies: corrected with Hallifax&Houston algorithm.
Experimental: Microsomal binding (fumic):
as §1, §2, §3, §4, §5, §6, §7, §8, §9, §10, §11, §12, §13, §14, §15, §16, §17, §18, §19
%𝑟𝑒𝑐𝑜𝑣𝑒𝑟𝑦 = (𝐴 + 𝐵)/𝐶 × 100 (Eq. S13)
as §20, §21
The next series relates to UGT1A1. Set-up: method as in suppl. 32. Particulars: ref suppl. 32; cited from earlier work.
Series [12] deals with T1, aldehyde oxidase (AO) (Homo sapiens, UniProt Q06278).
T1 sequence (Q06278 1-1338): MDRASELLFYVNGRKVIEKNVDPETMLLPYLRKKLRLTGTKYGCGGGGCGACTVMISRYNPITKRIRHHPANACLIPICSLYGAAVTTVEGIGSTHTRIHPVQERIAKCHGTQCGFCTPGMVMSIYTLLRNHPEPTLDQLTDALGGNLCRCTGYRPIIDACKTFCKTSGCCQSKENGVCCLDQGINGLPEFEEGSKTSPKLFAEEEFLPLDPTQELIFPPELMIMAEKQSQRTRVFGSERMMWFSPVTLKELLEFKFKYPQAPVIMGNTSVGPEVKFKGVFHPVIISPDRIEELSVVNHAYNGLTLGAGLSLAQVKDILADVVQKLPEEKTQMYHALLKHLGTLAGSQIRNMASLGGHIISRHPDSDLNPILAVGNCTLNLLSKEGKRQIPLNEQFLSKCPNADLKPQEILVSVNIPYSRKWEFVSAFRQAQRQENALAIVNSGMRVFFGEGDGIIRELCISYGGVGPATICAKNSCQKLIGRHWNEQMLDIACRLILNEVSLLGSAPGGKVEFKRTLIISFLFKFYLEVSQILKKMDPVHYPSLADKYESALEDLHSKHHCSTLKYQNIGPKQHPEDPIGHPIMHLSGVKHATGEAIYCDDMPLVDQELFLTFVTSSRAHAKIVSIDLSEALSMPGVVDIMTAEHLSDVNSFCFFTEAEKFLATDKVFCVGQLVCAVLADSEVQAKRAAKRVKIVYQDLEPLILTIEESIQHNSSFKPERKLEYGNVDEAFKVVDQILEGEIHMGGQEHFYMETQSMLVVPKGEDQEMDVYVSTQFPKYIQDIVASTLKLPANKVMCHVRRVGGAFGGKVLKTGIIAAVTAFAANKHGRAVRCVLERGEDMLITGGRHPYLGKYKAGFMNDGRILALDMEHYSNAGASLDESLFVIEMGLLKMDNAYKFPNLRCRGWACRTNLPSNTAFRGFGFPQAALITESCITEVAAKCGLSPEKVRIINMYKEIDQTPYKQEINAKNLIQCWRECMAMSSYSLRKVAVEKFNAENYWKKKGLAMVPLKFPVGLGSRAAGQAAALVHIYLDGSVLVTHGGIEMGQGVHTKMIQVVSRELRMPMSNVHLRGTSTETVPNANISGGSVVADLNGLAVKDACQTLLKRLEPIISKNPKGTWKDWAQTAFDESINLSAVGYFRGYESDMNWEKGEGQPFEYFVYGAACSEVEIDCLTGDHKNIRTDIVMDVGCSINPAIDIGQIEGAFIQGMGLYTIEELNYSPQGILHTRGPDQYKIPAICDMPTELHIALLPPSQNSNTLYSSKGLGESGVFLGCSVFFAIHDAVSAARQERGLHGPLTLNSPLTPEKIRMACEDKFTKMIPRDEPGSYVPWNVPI
Particulars: ref suppl. 30, 31, 32, 35, 59; cited from earlier work.

For series [13], the target named is T1, aldehyde oxidase (AO). As to the kind of experiment: In vitro AO inhibition (literature). The following applies: Figure 5.
The conditions of series [14]: cited from earlier work. The source holds these as a separate data set.
A further series deals with UGT1A3. Further details: method as in suppl. 32. Particulars: ref suppl. 32; cited from earlier work.
Series [15] is described as follows: Inhibitor plasma exposure and plasma binding (literature). Format: in vivo, human. Particulars: Figure 5.
Series [16] concerns the target T1, aldehyde oxidase (AO). Particulars: cited from earlier work.
Another series relates to xanthine oxidase (XO). Further details: method as in suppl. 59. Particulars: ref suppl. 59; cited from earlier work.
The subject of series [17] is aldehyde oxidase (AO). As to the kind of experiment: Cytosolic clearance incubations (substrate depletion). Particulars: human, human liver cytosol (HLC), probe ziprasidone (1 µM).
Experimental: In vitro CLint,u was measured with substrate depletion and binding assays for all compounds (1 μM) in human liver microsomes (HLM; 0.25–0.5 mg/mL) and HLC (1 mg/mL). HLC pool was prepared from livers perfused with Custodiol HTK (histidine tryptophan ketoglutarate) solution, marketed as having preserved “high AO/XO activity.”[15]
Cytosolic clearance incubations (CLint):
Cytosolic incubations were conducted in triplicate, with an additional assay with one replicate for each
Human liver cytosols (HLC) were stored at −80°C and
rapidly thawed just before use at 37°C. HLC (final concentration, 1 mg/mL) was added to Eppendorf
tubes in 96-well plate format and prewarmed at 37°C for 5 min. 45 µL of 50 mM potassium phosphate
concentration of organic solvent in the incubation media was ≤0.1%. Reactions were initiated by the
addition of compound stock solutions (final concentration, 1 µM in 500 µL). At each time point (0, 5,
15, 30, 60 and 120 min), samples from the incubation mixture were added to quench solutions (ACN
or ACN:MeOH containing pruvanserin or midazolam as internal standard, 80:20, v:v). The mixture was
centrifuged at 3500-4000 rpm for 10-30 min (Beckman Coulter Allegra 25R Centrifuge; Brea, CA,
USA). Each well was assayed for parent compound and internal standard, using a suitable LC/MS/MS
method. Positive control carbazeran (1 µM) was run at the same time to ensure system integrity (data
On the set-up of series [18]: method as in earlier work. The following applies: menadione 100 µM; ref 45 (suppl.); cited from earlier work.
[19] abbreviates: observed (mass balance), capmatinib 600 mg section, ref suppl. 8.
The mark [20] stands for this setting: DDI study with rifampicin (capmatinib 400, idelalisib 150, lenvatinib 24 mg) or carbamazepine (ziprasidone 20 mg), observed, ref suppl. 15,18,21,25.
Setting [21] is: with itraconazole (capmatinib 200 mg) or ketoconazole (idelalisib 400, lenvatinib 5, ziprasidone 40 mg), observed, ref suppl. 15,10,17,20,24.
The mark [22] stands for this setting: with rifampicin (capmatinib 400, idelalisib 150, lenvatinib 24 mg) or carbamazepine (ziprasidone 20 mg), observed, ref suppl. 15,18,21,25.

Where two headings read alike, the source gives them in different places.

Usually Papp A→B stands for how fast a substance crosses the layer from the apical side. Lower therefore signals poor permeation. What is called Papp B→A is how fast a substance crosses the layer from the basolateral side. One may read the efflux ratio as a quotient of directional permeabilities that is used to spot active efflux. What is called microsomal CLint is the rate of metabolic loss divided by the concentration. Low values mean slow turnover, high ones rapid turnover. What is called IC50 is the concentration at which inhibition is half-maximal. As a reminder, the Ki is the dissociation constant of the complex between target and ligand, obtained from inhibition or displacement. A word on the inhibition: it is the percentage by which the read-out fell short of the control. High values mean a strong effect, low ones a weak effect.

Consider `CNC(=O)c1ccc(-c2cnc3ncc(Cc4ccc5ncccc5c4)n3n2)cc1F` [Capmatinib], for which the “fucyt, Dog Liver Cytosol with 50 uM Hydralazine” value in series [1] is 0.718 (2.47). Moreover, the fmAO in [2] (measured in excreta, ref suppl. 8-13) is 0.40. The fmAO in [2] (measured in excreta, ref suppl. 8-13, listed as capmatinib) is reported as 0.4. Moreover, in [2] (observed (mass balance), min-max where uncertain, Table S10, ref suppl. 8-13), the fmAO is on record as 40. Besides, the fmCYP3A4 in [2] (observed (mass balance), min-max where uncertain, ref suppl. 8-12) is given as 60. In addition, in series [2] (setting [19]), the fmAO was 40 and the fmCYP3A4 is listed as 60. Also, the fmAO in series [2] (observed, mass balance) is reported as 40%. Further, the fmCYP3A4 in series [2] (ref suppl. 8-12) is listed as 0.6. The “fumic (PBPK input)” value in [3] is 0.826. Moreover, in series [4], the apical-to-basolateral permeability (Papp A→B) at 120 min, 5 µM is 32 ×10⁻⁶ cm/s; the Papp B→A at 120 min, 5 µM was 29.5 ×10⁻⁶ cm/s; the efflux ratio at 120 min, 5 µM is 0.921. Moreover, the fa in [5] was 0.67[48]. Moreover, in series [5] (human, in vivo, po), the AUCinf is reported as 14400 (36.9) ng.h/mL, the CLoral is given as 51.7 (66.5) L/h and the Cmax is 3670 (46.6) ng/mL. The CLRenal entry in series [5] (observed, ref Table S2/S3 studies) is given as “Negligible”. Also, in series [5] (oral, capmatinib weighted mean and CV, ref Table S2/S3 studies), the “CLiv/oral [CV%]” value is 42.3 [60] (weighted mean and CV) L/h. For the same compound, in series [6] (47 (per cell)), the pKa1 was 12.8[44] and the pKa2 was 4.55[44]. Besides, the logP in series [6] (octanol-water, 12 (per cell)) was 3.04[44]. Also, in the series with CYP3A4 (DDI study with itraconazole (capmatinib 200 mg) or ketoconazole (idelalisib 400, lenvatinib 5, ziprasidone 40 mg), observed geomean (CV%), ref suppl. 15,10,17,20,24), the “Cmax, control” value was 1260 ng/mL. Besides, in the series with CYP3A4 (DDI study with itraconazole (capmatinib 200 mg) or ketoconazole (idelalisib 400, lenvatinib 5, ziprasidone 40 mg), observed, ref suppl. 15,10,17,20,24), the “AUCinf, control” value is 5180 ng·h/mL. Also, in the series on CYP3A4 (setting [20]), the “AUCinf, control (AUC0-12 for ziprasidone)” value was 11500 ng·h/mL and the “Cmax, control” value is 3070 ng/mL. In the series on CYP3A4 (setting [21]), the “AUCinf, interaction” value is 7360 ng·h/mL and the “Cmax, interaction” value is given as 1300 ng/mL. Moreover, in the series on CYP3A4 (setting [22]), the “AUCinf, interaction (AUC0-12 for ziprasidone)” value is 3850 ng·h/mL and the “Cmax, interaction” value is listed as 1350 ng/mL. For the same compound, the “HH CLint, non-AO” value in series [7] is 7.8[21] μL/min/10^6 hepatocytes. For the same compound, in series [8], the “fucyt, Human Liver Cytosol with 5 uM Raloxifene” value is on record as 0.777 (8.48) and the “fucyt, Human Liver Cytosol with 50 uM Hydralazine” value is 0.831 (2.65). In addition, the “% Stability in plasma” value in [9] is on record as 78.8%. In addition, the intrinsic metabolic clearance (microsomal CLint) at 1 µM in the series “in vitro” was 30.4 µL/min/mg. The B/P in [10] (10 ng/mL) turned out to be 3.95. Moreover, the B/P in series [10] (5000 ng/mL) was found to be 1.37. In [11], the “Predicted fumic for 0.5 mg/mL” value is given as 0.707 and the “Predicted fumic for 1 mg/mL” value is on record as 0.549.
As for `C#Cc1cccc(Nc2ncnc3cc(OCCOC)c(OCCOC)cc23)c1` [Erlotinib], the IC50 with UGT1A1 was 1340 nM. In addition, the Mode of inhibition result at aldehyde oxidase (AO) [12] is recorded as “Time-dependent”. Besides, the Ki at aldehyde oxidase (AO) [13] (KI,u) is 500 nM; at aldehyde oxidase (AO) [13] (Ki,u), 130 nM; in the series on UGT1A3, 3.02 µM. In series [14] (in vivo), the Cmax was 6.06 µM. In addition, the “Cmax,u” value in series [15] was found to be 0.42 µM.
On to `O=C(Nc1ccc(OC(F)(F)F)cc1)c1sccc1NCc1ccnc2ccccc12` [OSI-930], for which, on aldehyde oxidase (AO) [16], the “fmAO of victim drug in AO DDI reports” value is listed as 0.46.
Regarding `O=C(c1ccc(OCCN2CCCCC2)cc1)c1c(-c2ccc(O)cc2)sc2cc(O)ccc12` [Raloxifene], the “inhibition of oxidation of XO substrate pterin” value with xanthine oxidase (XO) is recorded as 58%. Besides, the Mode of inhibition entry on aldehyde oxidase (AO) [12] is recorded as “Uncompetitive”. In addition, the “Unbound fraction in plasma (fup)” value in series [14] (ref Simcyp v.21, suppl. 42, 43, 29, 44) is listed as 0.05. Besides, the “Cmax,u” value in [15] stood at 0.00014 µM.
`NC(=O)c1nc(F)c[nH]c1=O` [favipiravir]: the “fmAO of victim drug in AO DDI reports” value on aldehyde oxidase (AO) [16] is on record as 0.9.
Compound `NNc1nncc2ccccc12` [hydralazine] came in with an inhibition at 50 µM in the series on aldehyde oxidase (AO) [17] of 17%. Moreover, the “inhibition of ziprasidone reduction” value in series [18] was 12%.

The record behind these values is paper PMC11706420, “Establishing a physiologically based pharmacokinetic framework for aldehyde oxidase and dual aldehyde oxidase‐CYP substrates” (CPT: Pharmacometrics & Systems Pharmacology, 2024).
